≈ marks a conversion by molar mass, not a printed value. Read-outs that look alike come from different tables or passages of the source.
Columns and labels:
Format in all cases: cell-based
[1] = test system: E. coli; assay: Agar Dilution MIC (Table I); conditions: Escherichia coli
[2] = test system: Strep. D; assay: Agar Dilution MIC (Table I); conditions: for MIC: read-out: Agar Dilution MIC
From the text: A typical and preferred compound provided by this invention is 7-(3-benzothienyl)glycylamido-3-methyl-3-cephem-4-carboxylic acid, the compound illustrated in Example 9. The antibacterial activity of this compound has been determined in standard in vitro agar dilution assays against a variety of gram positive and gram negative microorganism. The following Tables present typical minimum inhibitory concentrations (MIC's) in μg/ml for several compounds of the invention when evaluated against the indicated microorganisms. MIC's for several known compounds are also presented for comparison.
Agar Dilution MIC (μg/ml)

[3] = test system: H. influ.; assay: Agar Dilution MIC (Table I); conditions: read-out: Agar Dilution MIC
[4] = test system: Bacteroides fragilis; assay: Expanded anaerobic Spectrum MIC (Table IV)
[5] = test system: Haemophilus influenzae; assay: Expanded H. influenzae Spectrum MIC (Table IV)
[6] = test system: Staph. aureus; assay: Agar Dilution MIC (Table I); conditions: Staphylococcus aureus
[7] = test system: Strep. A; assay: Agar Dilution MIC (Table I); conditions: read-out: Agar Dilution MIC
[8] = test system: Klebsiella; assay: Agar Dilution MIC (Table I); conditions: for MIC: Klebsiella, read-out: Agar Dilution MIC
[9] = test system: Staph. epi; assay: Agar Dilution MIC (Table I); conditions: read-out: Agar Dilution MIC
[10] = test system: Strep. PN; assay: Agar Dilution MIC (Table I); conditions: strain PARK
[11] = geometric mean over strains, read-out: MIC Geometric mean
[12] = mean over strains, read-out: MIC mean
[13] = geometric mean over strains, read-out: MIC Geometric Mean
[14] = strain X1.1, read-out: Agar Dilution MIC
[15] = strain V41, read-out: Agar Dilution MIC
[16] = strain X400, read-out: Agar Dilution MIC

SMILES | MIC ([1]; strain EC14) | MIC ([1]; strain N10) | MIC ([2]; strain X66) | MIC ([3]; strain 76) | MIC ([3]; strain C.L.) | MIC [4, 11] | MIC [4, 12] | MIC ([4]; strain 180-821, read-out: MIC) | MIC ([4]; strain 10668, read-out: MIC) | MIC ([4]; strain 10695, read-out: MIC) | MIC ([4]; strain 10732, read-out: MIC) | MIC ([4]; strain 10750, read-out: MIC) | MIC ([4]; strain 10774, read-out: MIC) | MIC ([4]; strain 10817, read-out: MIC) | MIC ([4]; strain 10837, read-out: MIC) | MIC ([4]; strain 107266, read-out: MIC) | MIC ([4]; strain 107268, read-out: MIC) | MIC ([4]; strain 108133, read-out: MIC) | MIC [5, 13] | MIC [6, 14] | other results
CC1(C)S[C@@H]2[C@H](NC(=O)[C@H](N)c3ccccc3)C(=O)N2[C@H]1C(=O)O [Ampicillin, reference compound] | 4 µg/mL (≈ 11.4 µM) | 8 µg/mL (≈ 22.9 µM) | 4 µg/mL (≈ 11.4 µM) | 16 µg/mL (≈ 45.8 µM) | 0.5 µg/mL (≈ 1.43 µM) |  |  |  |  |  |  |  |  |  |  |  |  |  |  |  | 
CC1=C(C(=O)O)N2C(=O)[C@@H](NC(=O)[C@H](N)c3ccccc3)[C@H]2SC1 [Cephalexin] | 4 µg/mL (≈ 11.5 µM) |  |  |  |  | 34 µg/mL (≈ 97.9 µM) | 40 µg/mL (≈ 115 µM) | 16 µg/mL (≈ 46.1 µM) | > 64 µg/mL | 64 µg/mL (≈ 184 µM) | 32 µg/mL (≈ 92.1 µM) | 64 µg/mL (≈ 184 µM) | > 64 µg/mL | 16 µg/mL (≈ 46.1 µM) | 16 µg/mL (≈ 46.1 µM) | 32 µg/mL (≈ 92.1 µM) | 16 µg/mL (≈ 46.1 µM) | 32 µg/mL (≈ 92.1 µM) | 12 µg/mL (≈ 34.5 µM) | 4 µg/mL (≈ 11.5 µM) | MIC ([4]; strain 10683, read-out: MIC): > 64 µg/mL; MIC [5, 12]: 22 µg/mL (≈ 63.3 µM); MIC ([5]; strain 105): 4 µg/mL (≈ 11.5 µM); MIC ([5]; strain 112, read-out: MIC): 16 µg/mL (≈ 46.1 µM); MIC [2]: 128 µg/mL (≈ 368 µM); Agar Dilution MIC ([2]; strain 2041): 128 µg/mL; MIC ([6]; read-out: Agar Dilution MIC): 128 µg/mL (≈ 368 µM); MIC [7]: 0.5 µg/mL (≈ 1.44 µM); MIC [8]: 128 µg/mL (≈ 368 µM)
CC1=C(C(=O)O)N2C(=O)C(NC(=O)C(N)c3cc4ccccc4s3)C2SC1 (centres unmarked) [Compound B, 7-(2-benzothienyl)glycylamido-3-methyl-3-cephem-4-carboxylic acid] |  |  |  |  |  | 15 µg/mL (≈ 37.2 µM) | 27 µg/mL (≈ 66.9 µM) | 2 µg/mL (≈ 4.96 µM) | 64 µg/mL (≈ 159 µM) | 16 µg/mL (≈ 39.7 µM) | 4 µg/mL (≈ 9.91 µM) | 64 µg/mL (≈ 159 µM) | 64 µg/mL (≈ 159 µM) | 4 µg/mL (≈ 9.91 µM) | 16 µg/mL (≈ 39.7 µM) | 4 µg/mL (≈ 9.91 µM) | 16 µg/mL (≈ 39.7 µM) | 16 µg/mL (≈ 39.7 µM) | 2 µg/mL (≈ 4.96 µM) |  | MIC [5, 12]: 3 µg/mL (≈ 7.44 µM); MIC ([5]; strain 102): 16 µg/mL (≈ 39.7 µM); MIC ([5]; strain 104, read-out: MIC): 2 µg/mL (≈ 4.96 µM); MIC ([5]; strain 107): 4 µg/mL (≈ 9.91 µM); MIC ([5]; strain 109, read-out: MIC): 1 µg/mL (≈ 2.48 µM); MIC ([5]; strain 110): 4 µg/mL (≈ 9.91 µM); MIC ([5]; strain 112, read-out: MIC): 8 µg/mL (≈ 19.8 µM); MIC ([5]; strain 113, read-out: MIC): 2 µg/mL (≈ 4.96 µM); MIC ([5]; strain 114, read-out: MIC): 2 µg/mL (≈ 4.96 µM)
CC1=C(C(=O)O)N2C(=O)C(NC(=O)[C@@H](N)c3csc4c(F)cccc34)C2SC1 (stereo partly drawn) [Ex. 21, L-7-(7-Fluoro-3-benzothienyl)glycylamido-3-methyl-3-cephem-4-carboxylic acid] | 128 µg/mL (≈ 304 µM) | 128 µg/mL (≈ 304 µM) |  | 8 µg/mL (≈ 19 µM) | 64 µg/mL (≈ 152 µM) |  |  |  |  |  |  |  |  |  |  |  |  |  |  | 32 µg/mL (≈ 75.9 µM) | MIC [9]: 128 µg/mL (≈ 304 µM); MIC ([9]; strain 222): 64 µg/mL (≈ 152 µM); MIC [10]: 16 µg/mL (≈ 38 µM); MIC ([1]; strain TEM): 128 µg/mL (≈ 304 µM); MIC [2]: 128 µg/mL (≈ 304 µM); Agar Dilution MIC ([2]; strain 2041): 128 µg/mL; MIC ([6]; read-out: Agar Dilution MIC, strain S13E): 128 µg/mL (≈ 304 µM); MIC [6, 15]: 128 µg/mL (≈ 304 µM); MIC [6, 16]: 128 µg/mL (≈ 304 µM); MIC ([7]; strain C203): 8 µg/mL (≈ 19 µM); MIC [8]: 128 µg/mL (≈ 304 µM); MIC ([8]; strain X26): 64 µg/mL (≈ 152 µM); Agar Dilution MIC ([8]; strain X68): 128 µg/mL
C=CC1=C(C(=O)O)N2C(=O)C(NC(=O)[C@H](N)c3csc4ccccc34)C2SC1 (stereo partly drawn) [Ex. 35, D-7-(3-Benzothienylglycylamido)-3-vinyl-3-cephem-4-carboxylic acid] | 128 µg/mL (≈ 308 µM) | 128 µg/mL (≈ 308 µM) | 64 µg/mL (≈ 154 µM) | 1 µg/mL (≈ 2.41 µM) | 8 µg/mL (≈ 19.3 µM) |  |  |  |  |  |  |  |  |  |  |  |  |  |  | 2 µg/mL (≈ 4.81 µM) | MIC ([9]; strain 222): 2 µg/mL (≈ 4.81 µM); MIC ([9]; strain EPI1): 8 µg/mL (≈ 19.3 µM); MIC ([1]; strain TEM): 128 µg/mL (≈ 308 µM); MIC ([2]; strain 2041): 32 µg/mL (≈ 77 µM); MIC [6, 15]: 16 µg/mL (≈ 38.5 µM); MIC [6, 16]: 32 µg/mL (≈ 77 µM); MIC ([8]; strain KAE): 128 µg/mL (≈ 308 µM); MIC ([8]; strain X26): 8 µg/mL (≈ 19.3 µM); MIC ([8]; strain X68): 128 µg/mL (≈ 308 µM)
